Source: patent US10017501B2, “Benzimidazole derivatives as bromodomain inhibitors” (Gilead Sciences, Inc., priority 2013, dated 2018)
pEC50: −log10 of the molar value.

These molecules were tested on MT-4 cells (assay: MT-4 proliferation assay). Details: Homo sapiens, MT4, 120 h, read-out: MT4 Assay (EC50, nM).
Assay type: cell-based, human
Method: MT-4 Proliferation Assay:
Compounds were tested in a standardized high-throughput 384-well assay format. Each compound was serially diluted 3-fold in 100% DMSO in polypropylene 384-well plates using a Biomek FX Workstation, and 0.4 μL compound added to an assay plate containing 40 μL RPMI media. Compounds were arranged in a horizontal pattern, with 10 concentrations per compound, and 8 compounds added per plate. Due to low DMSO tolerability, the final DMSO concentration never exceeded 0.5% (v/v). Each assay plate contained 10 μM Puromycin and 0.5% DMSO in RPMI-1640 as positive and negative controls respectively. MT-4 cells (HTLV-1 transformed, human T lymphoblastoid cells, NIH Aids Reagent program) were added in volumes of 35 μL per well and 2,000 cells per well using a Biotek uFlow Workstation (Biotek, Winooski, Vt.), and the plates subsequently incubated for 5 days at 37° C. in an incubator set at 5% CO2 and 90% humidity.
After 5 days, 22 μL Cell Titer Glo (Promega) was added to the assay plates with a Biotek uFlow Workstation. Plates were subsequently placed on a Perkin Elmer Envision Plate Reader for 5 minutes before the luminescence signal was read.

Row | Structure (SMILES) | EC50 [nM]
1 | Cc1noc(C)c1-c1cc(S(=O)(=O)NC2CCCC2)c2nc([S+](C)[O-])[nH]c2c1 (stereo not drawn) [Compound 1020-5, N-Cyclopentyl-6-(3,5-dimethylisoxazol-4-yl)-2-(methylsulfinyl)-1H-benzo[d]imidazole-4-sulfonamide] | 329

Same assay, conditions: Homo sapiens, MT4, 120 h; Table 1; 5 days, Cell Titer Glo; read-out: MT4 Assay (EC50)

Row | Structure (SMILES) | pEC50
2 | Cc1noc(C)c1-c1cc(S(=O)(=O)NC2CCCC2)c2nc(NCC3CC3)[nH]c2c1 [Compound 1020-1, N-Cyclopentyl-2-(cyclopropylmethylamino)-6-(3,5-dimethylisoxazol-4-yl)-1H-benzo[d]imidazole-4-sulfonamide] | 6.71
3 | CSc1nc2c(S(=O)(=O)NC3CCCC3)cc(-c3c(C)noc3C)cc2[nH]1 [Compound 1020-4, N-Cyclopentyl-6-(3,5-dimethylisoxazol-4-yl)-2-(methylthio)-1H-benzo[d]imidazole-4-sulfonamide] | 6.72
4 | Cc1cnn(C)c1-c1cc(-c2c(C)noc2C)cc2nc(C3CC3)[nH]c12 [Compound 1020-12, 4-(2-Cyclopropyl-7-(1,4-dimethyl-1H-pyrazol-5-yl)-1H-benzo[d]imidazol-5-yl)-3,5-dimethylisoxazole] | 7.67
5 | Cc1noc(C)c1-c1cc(-c2cccnc2-c2ccccc2)c2nc(C3CC3)[nH]c2c1 [Compound 1020-19, 4-(2-Cyclopropyl-4-(2-phenylpyridin-3-yl)-1H-benzo[d]imidazol-6-yl)-3,5-dimethylisoxazole] | 7.61
6 | CC/C=C(\CC)c1cc(-c2c(C)noc2C)cc2nc(C3CC3)[nH]c12 [Compound 1020-28, (E)-4-(2-Cyclopropyl-4-(hex-3-en-3-yl)-1H-benzo[d]imidazol-6-yl)-3,5-dimethylisoxazole] | 7.29
7 | Cc1noc(C)c1-c1cc(/C=C/c2ccccc2)c2[nH]c(C3CC3)nc2c1 [Compound 1020-37, (E)-4-(2-cyclopropyl-4-styryl-1H-benzo[d]imidazol-6-yl)-3,5-dimethylisoxazole] | 6.29
8 | Cc1noc(C)c1-c1cc(C(C)c2ccc(F)cc2)c2[nH]c(C3CC3)nc2c1 (stereo not drawn) [Compound 1020-44, 4-(2-Cyclopropyl-4-(1-(4-fluorophenyl)ethyl)-1H-benzo[d]imidazol-6-yl)-3,5-dimethylisoxazole] | 7.06
9 | Cc1noc(C)c1-c1cc(NC2CCCC2)c2nc(C3CC3)[nH]c2c1 [Compound 1020-50, N-Cyclopentyl-2-cyclopropyl-6-(3,5-dimethylisoxazol-4-yl)-1H-benzo[d]imidazol-4-amine] | 6.45
10 | Cc1ccnc(C)c1-c1cc(-c2c(C)noc2C)cc2nc(C3CC3)[nH]c12 [Compound 1020-57, 4-(2-Cyclopropyl-7-(2,4-dimethylpyridin-3-yl)-1H-benzo[d]imidazol-5-yl)-3,5-dimethylisoxazole] | 7.87
11 | Cc1n[nH]c(C)c1-c1cc(-c2c(C)noc2C)cc2nc(C3CC3)n(C)c12 [Compound 1020-72, 4-(2-cyclopropyl-7-(3,5-dimethyl-1H-pyrazol-4-yl)-1-methyl-1H-benzo[d]imidazol-5-yl)-3,5-dimethylisoxazole] | 8.19
12 | Cc1ccc2ncccc2c1-c1cc(-c2c(C)noc2C)cc2nc(C3CC3)n(C)c12 [Compound 1020-74, 4-(2-Cyclopropyl-1-methyl-7-(6-methylquinolin-5-yl)-1H-benzo[d]imidazol-5-yl)-3,5-dimethylisoxazole] | 7.82
13 | Cc1n[nH]c(C)c1-c1cc(-c2c(C)noc2C)cc2[nH]c(C3CCC3)nc12 [Compound 1020-75, 4-(2-Cyclobutyl-4-(3,5-dimethyl-1H-pyrazol-4-yl)-1H-benzo[d]imidazol-6-yl)-3,5-dimethylisoxazole] | 7.74
14 | Cc1nc2cc(-c3c(C)noc3C)cc(-c3c(C)n[nH]c3C)c2[nH]1 [Compound 1020-77, 4-(7-(3,5-Dimethyl-1H-pyrazol-4-yl)-2-methyl-1H-benzo[d]imidazol-5-yl)-3,5-dimethylisoxazole] | 7.40
15 | Cc1n[nH]c(C)c1-c1cc(-c2c(C)noc2C)cc2nc(C3CC3(F)F)[nH]c12 (stereo not drawn) [Compound 1020-78, 4-(2-(2,2-Difluorocyclopropyl)-7-(3,5-dimethyl-1H-pyrazol-4-yl)-1H-benzo[d]imidazol-5-yl)-3,5-dimethylisoxazole] | 7.59
16 | Cc1n[nH]c(C)c1-c1cc(-c2c(C)noc2C)cc2[nH]c(NCC3CC3)nc12 [Compound 1020-79, N-(Cyclopropylmethyl)-4-(3,5-dimethyl-1H-pyrazol-4-yl)-6-(3,5-dimethylisoxazol-4-yl)-1H-benzo[d]imidazol-2-amine] | 7.47
17 | Cc1n[nH]c(C)c1-c1cc(-c2c(C)noc2C)cc2[nH]c(NC3CC3)nc12 [Compound 1020-81, N-Cyclopropyl-4-(3,5-dimethyl-1H-pyrazol-4-yl)-6-(3,5-dimethylisoxazol-4-yl)-1H-benzo[d]imidazol-2-amine] | 8.12
18 | Cc1ccnc(C)c1-c1cc(-c2c(C)noc2C)cc2[nH]cnc12 [Compound 1020-84, 4-(4-(2,4-Dimethylpyridin-3-yl)-1H-benzo[d]imidazol-6-yl)-3,5-dimethylisoxazole] | 6.63
19 | Cc1ccc2ncccc2c1-c1cc(-c2c(C)noc2C)cc2[nH]c(-c3cnn(C)c3)nc12 [Compound 1020-88, 3,5-Dimethyl-4-(2-(1-methyl-1H-pyrazol-4-yl)-4-(6-methylquinolin-5-yl)-1H-benzo[d]imidazol-6-yl)isoxazole] | 7.34
20 | Cc1ccc2ncccc2c1-c1cc(-c2c(C)noc2C)cc2[nH]c(C(O)CCO)nc12 (stereo not drawn) [Compound 1020-89, 1-(6-(3,5-dimethylisoxazol-4-yl)-4-(6-methylquinolin-5-yl)-1H-benzo[d]imidazol-2-yl)propane-1,3-diol] | 6.98
21 | COc1nc2c(-c3c(C)ccc4ncccc34)cc(-c3c(C)noc3C)cc2[nH]1 [Compound 1020-90, 4-(2-methoxy-4-(6-methylquinolin-5-yl)-1H-benzo[d]imidazol-6-yl)-3,5-dimethylisoxazole] | 7.60
22 | Cc1ccc2ncccc2c1-c1cc(-c2c(C)noc2C)cc2[nH]c(C(F)(F)F)nc12 [Compound 1020-92, 3,5-Dimethyl-4-(4-(6-methylquinolin-5-yl)-2-(trifluoromethyl)-1H-benzo[d]imidazol-6-yl)isoxazole] | 7.14
23 | Cc1n[nH]c(C)c1-c1cc(-c2c(C)noc2C)cc2nc(N)[nH]c12 [Compound 1020-96, 4-(3,5-Dimethyl-1H-pyrazol-4-yl)-6-(3,5-dimethylisoxazol-4-yl)-1H-benzo[d]imidazol-2-amine] | 6.50
24 | Cc1noc(C)c1-c1cc(C(O)(c2ccccc2)c2ccccc2)c2nc(C3CC3)[nH]c2c1 [Compound 1020-102, (2-Cyclopropyl-6-(3,5-dimethylisoxazol-4-yl)-1H-benzo[d]imidazol-4-yl)diphenylmethanol] | 7.30
25 | CCC(CC)c1cc(-c2c(C)noc2C)cc2[nH]c(C3CC3)nc12 [Compound 1020-120, 4-(2-Cyclopropyl-4-(pentan-3-yl)-1H-benzo[d]imidazol-6-yl)-3,5-dimethylisoxazole] | 7.31
26 | Cc1noc(C)c1-c1cc(C(O)C2CCCC2)c2nc(C3CC3)[nH]c2c1 (stereo not drawn) [Compound 1020-121, Cyclopentyl(2-cyclopropyl-6-(3,5-dimethylisoxazol-4-yl)-1H-benzo[d]imidazol-4-yl)methanol] | 7.37
27 | CCC(O)(CC)c1cc(-c2c(C)noc2C)cc2c1nc(C1CC1)n2C [Compound 1020-132, 3-(2-Cyclopropyl-6-(3,5-dimethylisoxazol-4-yl)-1-methyl-1H-benzo[d]imidazol-4-yl)pentan-3-ol] | 6.26
